Experimental data as given in patent US20060148712A1, “Monocyte chemoattractant activity of galectin-3” (priority 2000, published 2006).

Tests used:
[1] = system: cultured human peripheral blood macrophages; experiment: Migration of cultured human peripheral blood macrophages in vitro; format: cell-based; conditions: 1 μM galectin-3; p<0.05, n=3
Description: Human macrophages were obtained by culturing peripheral blood monocytes in vitro for 7 days as previously described (Fantuzzi, et al., Blood 94:875-83 (1999)). Human alveolar macrophages were obtained from bronchoalveolar lavage (BAL) fluid according to a previously described protocol (Sugimoto et al, Am. Rev. Respir. Dis. 139:1329-35 (1989)). The purity of the macrophages was over 90% and the viability was over 99%.
Monocyte migration was examined by using 96-well micro Boyden chambers with 5 μm-pore size filters (Neuro Probe, Inc., Gaithersburg, Md.) as described previously (Falk, et al., J. Immunol. Meth. 33:239-47 (1980)), Chertov, et al., J. Biol. Chem. 271:2935-40 (1996)). Briefly, after the indicated concentrations of galectin-3 in RPMI 1640 were applied to the lower chambers, purified monocyte suspensions (2.5-5.0×10^4/well) were applied to the upper chambers. After incubation of the chambers for 1 h in a humidified incubator at 5% CO2 and 37° C., the filters were washed once with PBS and processed with Wright stain. The number of monocytes on the bottom side of the filters was counted in 5 to 10 high-power fields. Monocyte migration was calculated from the average numbers of the counted cells and expressed as % of input cells in a well.

[2] = system: cell recruitment into mouse air pouches; experiment: Migration assay in vivo (mouse air pouch); design: species or system Balb/c mice
Experimental: The mouse air pouch experiments were performed according to a method described previously (Perretti, et al., J. Immunol. 151:4306-14 (1993)). Briefly, an air pouch was induced on the back of Balb/c mice by injecting 3 ml of air intradermally 2, 4, and 6 days before the experiments. Then, 1 ml of 0.9% sodium chloride (USP grade saline, Baxter Healthcare Corporation, Deerfield, Ill.) containing 1 μM galectin-3 was injected into the pouch. As positive and negative controls, 100 ng/ml of recombinant MCP-1 and diluent only, respectively, were injected. Four h afterwards, recruited cells were recovered by gently lavaging the pouch with 1 ml of PBS containing 1 mM EDTA. Cell number was determined and the distribution of leukocyte types was analyzed after cytospin preparation and Wright staining.

lymphocytes = experiment: Lymphocyte migration in vitro; format: cell-based
CCR-2 = biological target: T1, CCR-2 (Homo sapiens, UniProt P41597); experiment: Immunoprecipitation and immunoblotting with specific antibodies; format: binding
T1 construct: Chemokine receptors expressed on monocytes include CCR-1, CCR-2, CCR-5, and CXCR-4; endogenous in cells
T1 sequence (P41597 whole entry): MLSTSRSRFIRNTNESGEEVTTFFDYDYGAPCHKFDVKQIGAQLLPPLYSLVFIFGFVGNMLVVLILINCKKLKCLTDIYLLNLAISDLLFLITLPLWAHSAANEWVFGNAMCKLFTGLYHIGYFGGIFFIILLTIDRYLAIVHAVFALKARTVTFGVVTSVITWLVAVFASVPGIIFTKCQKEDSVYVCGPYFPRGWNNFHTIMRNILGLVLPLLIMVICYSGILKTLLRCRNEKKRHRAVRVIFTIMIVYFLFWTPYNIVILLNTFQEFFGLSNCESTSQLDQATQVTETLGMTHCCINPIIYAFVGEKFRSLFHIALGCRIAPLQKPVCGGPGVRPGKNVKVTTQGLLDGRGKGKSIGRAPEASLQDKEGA

[3] = 1 μM galectin-3, 1 ml into pouch, 4 h, p<0.05, n=4

galectin-3: Recombinant human galectin-3, a 26 kDa beta-galactoside-binding protein (lectin)
Enhancement of macrophage migration over that induced by the control medium [1]: 190% | Increase in number of monocytes in the air pouch over vehicle (saline) [2, 3]: 11.6 times | Increase in number of neutrophils in the air pouch over vehicle (saline) [2, 3]: 8.21 times | Number of eosinophils in the air pouch ([2]; 1 μM galectin-3, 4 h, p=0.112): not augmented significantly | Number of lymphocytes in the air pouch ([2]; 1 μM galectin-3, 4 h, p=0.309): not augmented significantly | Migration of lymphocytes in vitro (lymphocytes): does not induce migration of lymphocytes | Interaction with chemokine receptor (CCR-2): Neither have interactions between galectin-3 and these four chemokine receptors been detected
